Laboratory results published in patent US7846708B2, “Method for increasing the survival of bacterial strains of the Rhizobium genus” (Consiglo Nazionale delle Richerch, priority 2005, dated 2010).

What was measured:
S. meliloti 1021 = test: Survival at low temperature (4° C.), colony counting; type: cell-based, Sinorhizobium meliloti; details: 0.5 mM IAA; after 45 and 60 days at 4° C.; FIG. 9
Description: FIG. 9: Survival at 4° C. of wild type S. meliloti 1021 treated with IAA and of the strain RD64. The bacterial cells of the three analysed strains (wild type S.m. 1021, S.m. treated with 0.5 mM IAA and RD64) were grown until exponential phase, then plated and the plates were incubated at 4° C. for 15, 30, 45 and 60 days. Every 15 days, a plate group of each strain was transferred to 30° C. for one day and the colonies were counted.
Furthermore, the author has assayed for the ability of the same strains to resist to prolonged incubations at low temperature (4° C.). The cells of the same three strains: Sm 1021, Sm 1021 treated with 0.5 mM IAA and the strain RD64, were grown until an optical density of 0.6, plated and incubated at 4° C. for periods of time variable up to two months.

[1] = tested on: Sinorhizobium meliloti strain 1021 cells; test: Cell resistance of Sinorhizobium meliloti cells to various stress conditions (colony counting after stress); type: cell-based
Description: (§1) The number of colonies of not treated Sinorhizobium meliloti 1021 was compared to the one of the same strain treated with IAA (0.05 mM and 0.5 mM) two days after reaching the stationary phase of bacterial growth. The percentage value of the surviving cells was measured several days after treatment. Applied stresses were: pH 3 (acid stress): cells were incubated for 30 minutes and then plated; NaCl 0.5 M (high osmotic pressure): 3 hours incubation; UV light resistance: time was not determined but the UV dose was selected to reach an irradiation dosage of 100 J/m^2; treatment at high temperature 55° C.: cells were incubated for 5 minutes; treatment at low temperature (4° C.) cells were incubated for up to 60 days at 4° C.
The author has assayed for the bacteria resistance to stresses such as low and high temperatures. For the resistance to high temperatures the cells were grown in exponential phase (optical density 0.6) and then incubated for 2 minutes at room temperature or at 55° C. and then plated.
Sinorhizobium meliloti strain 1021 cells and its derivative RD64 overproducing IAA, were exposed to different stress conditions and the number of surviving cells counted by plating opportune dilutions on agar plates; after plates incubation at 30° C., the number of emerging colonies were counted (Table 1).
As a control untreated cells were plated and the number of colonies was considered as 100% for that condition. Stress applied were: • 1) low pH, pH 3, treatment: 30 minutes; • 2) high osmotic pressure (0.5 M NaCl): 3 hours; • 3) UV irradiation were automatically set at 100 J/m^2 and cells were irradiate for less that 1 minute; • 4) High (55° C.) temperature treatment: 5 minutes. Results A) Expression of the Beta-glucuronidase Modulated by the Mutation in the Promoter-iaaMtms2 Sequence

[2] = tested on: Sinorhizobium meliloti 1021; test: Growth and survival test in liquid minimal medium (colonies on agar plates after prolonged stationary phase); type: cell-based; details: for ability to generate colonies with respect to the reference strain (1021): FIG. 6; for increase of the ability to generate colonies: FIG. 7, 7 and 15 days after IAA addition
Description: For the growth and survival tests the minimal medium was utilized. A culture of the various strains was kept in growth stationary phase for two days, then they were collected, properly diluted and plated at the various recommended periods of time so as to obtain about 100-1000 colonies per plate. For the strains to be treated with IAA, the addition (0.05 or 0.5 mM IAA) occurred after two days of growth in stationary phase, then the bacteria were diluted and plated.
The author has evaluated the ability of S. meliloti 1021 to generate colonies on agar plates after prolonged incubation in growth medium. The formed colonies were counted on at least five plates and the experiment was repeated at least five times.
as §1
In fact, the following groups were compared: • Sm 1021; • Sm 1021 additioned with 0.5 mM IAA; • Sm 1021 additioned with 0.05 mM IAA; • Sm 1021 containing the wild promoter-iaaMtms2 construct (RD 64) • Sm 1021 containing the promoter-iaaMtms2 construct mutated in the −16/−14 GAC region (RD65); • Sm 1021 containing the promoter-iaaMtms2 construct mutated in the −48, 49, 51, 52 G region (RD66); • Sm 1021 containing the promoter-iaaMtms2 construct mutated in the −40-37 CCCC (RD67); b) Effect of Various IAA Concentrations on the Survival of Sinorhizobium Meliloti 1021
In order to evaluate the effect of different IAA concentrations on the survival of Sinorhizobium meliloti 1021 the number of colonies generated on agar plates were evaluated (see FIG. 7). The utilized concentrations were 0.05; 0.2; 0.5; and 2 mM IAA. The inocula of the wild strain not treated with IAA were used as controls as well as the RD64 strain. The number of colonies of S.m. 1021 was arbitrarily set equal to 100%. The number of colonies generated after 7 and 15 days of growth after the IAA addition in the growth liquid medium was evaluated.

[3] = tested on: Sinorhizobium meliloti 1021; test: Effect of dehydration on survival (vacuum-dried cells plated at increasing times); type: cell-based
Description: A culture of the wild strain S. meliloti 1021, of the strain 64 and 66 were kept in growth stationary phase for three days, then they were dehydrated […] and plated at the various times shown in figure. Furthermore, a culture of the wild strain 1021 was subjected to analogous treatment, thereto 0.05 mM IAA were added after two days of growing in stationary phase, the stationary growth continued for a third day and then the bacteria were dehydrated and processed like the preceding samples.
For the dehydration test (FIG. 8), the cells were grown until reaching the stationary phase and kept for 3 days in stationary phase. The cells were centrifuged at 4000 rpm for 15′, washed in water and counted on plates as live colonies. The cells were then diluted so as to be aliquoted in Eppendorf tubes at the concentration of 1:10000 for each sample and then vacuum-dried in Savant centrifuge. After 4, 8, 14 and 32 days, the aliquots were plated on TYR selective medium, the formed colonies were counted on at least three plates and the experiment was repeated at least three times.

O=C(O)Cc1c[nH]c2ccccc12 [IAA, indole-3-acetic acid]
number of cells able to generate colonies after incubation at 4° C. with respect to the not treated strain (S. meliloti 1021): almost the double
Survival (%), Osmotic shock (+0.5 M NaCl) ([1]; 0.5 M NaCl, 3 hours, unstressed cells = 100%, IAA added at 0.5 mM to 1021, strain 64 without addition): 78 ± 1%
Survival (%), Heat-shock (55° C.) ([1]; 55° C., 5 minutes, unstressed cells = 100%, IAA added at 0.5 mM to 1021, strain 64 without addition): 0.196 ± 0.021%
more resistant than the untreated 1021, high temperature ([1]; 55° C., relative to untreated 1021): 10%
Survival (%), UV-irradiation (100 J/m^2) ([1]; 100 J/m^2, unstressed cells = 100%, IAA added at 0.5 mM to 1021, strain 64 without addition): 86 ± 1%
more resistant than the untreated 1021, intense UV irradiation ([1]; UV irradiation, relative to untreated 1021): 10%
colonies generated more than the control after heat shock ([1]; heat shock, IAA at 0.05 mM as printed, relative to S.m. 1021): up to 20%
more resistant than the untreated 1021, high osmotic solution ([1]; high osmotic solution, relative to untreated 1021): 50%
more resistant than the untreated 1021, very low pH ([1]; pH3, 30 minutes, relative to untreated 1021): 100%
Survival (%), Acid shock (pH 3.0) ([1]; pH 3, 30 minutes, unstressed cells = 100%, IAA added at 0.5 mM to 1021, strain 64 without addition): 0.0023 ± 0.0006%
ability to generate colonies with respect to the reference strain (1021) ([2]; 0.05 mM IAA added after two days in stationary phase): greater ability to generate colonies
increase of the ability to generate colonies ([2]; 0.2 mM IAA): effective to increase the ability to generate colonies
ability to generate colonies with respect to the reference strain (1021) ([2]; 0.5 mM IAA added after two days in stationary phase): greater ability to generate colonies
increase of the ability to generate colonies ([2]; 0.5 mM IAA): effective to increase the ability to generate colonies
total increase in the number of live cells in liquid culture with respect to the wild strain ([2]; purified IAA at 0.5 mM, after two growth weeks): at least 100%
increase of the survival of the bacterial cells under dehydration ([3]; IAA at 0.05 mM, FIG. 8): up to 50%
additional increase in the cellular survival of pelleted, dehydrated and plated cells ([3]; IAA purified at 0.05 mM, after two weeks): up to 40%
